Values joined by “and” are separate entries in the source; they are usually repeats but may differ in a detail not shown here. Equal values may be shown once. Marks after values point to notes of the source that are not given here.
What was measured:
[1] = test system: Escherichia coli IMI2001; experiment: Peritonitis/sepsis model in neutropenic NMRI mice, effect over time at 7.5 mg/kg (Example 6); assay type: in vivo
Description: The objective of this study was to investigate the effectiveness of CPR in vivo after intravenous (iv) administration of a single dose of 7.5 mg/kg. The effect was tested against Escherichia coli IMI2001 in a peritonitis model in neutropenia NMRI mice to avoid the use of mucin, which is commonly used in a mouse peritonitis model. Neutropenia was induced in mice by injection of cyclophosphamide. Administration of meropenem at a dose of 40 mg/kg was included as a positive control group and vehicle administration was included as a negative control group. The number of colonies in peritoneal fluid and blood was determined 2 and 5 hours after administration.
30 female outbred mice NMRI, 2832 grams (Kiev).
Escherichia coli IMI2001 from IMINAMN, Ukraine, Kharkov. Clinical isolate from a human wound from 2013 with multidrug resistance (to ampicillin, ceftazidime, aztreonam, gentamicin, ciprofloxacin).
PPC in Ringer's acetate, pH 6, 1.2 ml, 0.75 mg/ml.
(§1) The introduction of cyclophosphamide to mice. Neutropenia was induced in mice by injection of 0.5 ml of cyclophosphamide solution intraperitoneally 4 days (200 mg/kg) and 1 day (100 mg/kg) before infection.
Infection of mice. Fresh E. coli AID #172 colonies obtained overnight in an agar plate and 5% horse blood were suspended and diluted in sterile saline to approximately 2×10^6 CFU/ml. One hour before the start of administration (time point 1 h), mice were intraperitoneally infected with 0.5 ml of a suspension of E. coli in the lateral lower quadrant of the abdomen. 2.5 h after administration with significant clinical signs of infection, mice were orally administered 45 μl of neurofen (20 mg ibuprofen per ml, which corresponded to 30 mg/kg) as a painkiller.
Score mice. At each sampling in mice, a clinical assessment of the clinical signs of infection was performed.
The introduction of drugs to mice. The mice were given a single intravenous administration of CPR, meropenem, or excipient into the lateral tail vein for approximately 30 seconds at a time point of 0 h (see Table 6). The dose determination was based on an average body weight of 30 g. Mice with a body weight of 2832 g were injected with 0.30 ml of solution. Mice weighing 2728 g were injected with 0.25 ml of the solution and mice weighing 32.136 g were injected with 0.35 ml of the solution. Mice 17 accidentally injected 0.35 ml, despite the fact that its body weight was 29.5 g.
Fence samples. The number of colonies was determined in blood and peritoneal fluid at 0, 2 and 5 hours after administration according to Table 6.
Mice were anesthetized with CO2+O2 and blood sampling was performed from a section in the axillary region. The mice were sacrificed by cervical dislocation and a total of 2 ml of sterile physiological saline was injected intraperitoneally and a gentle massage of the abdomen was performed, then it was opened and a sample of the fluid was pipetted. Each sample was diluted 10 times in saline and drops of 20 μl were applied to plates with blood agar. All agar plates were incubated for 1822 hours at 35° C. in air.

[2] = test system: Escherichia coli IMI2001; experiment: Model of hip (femoral) infection with neutropenia in mice (Example 7); assay type: in vivo, NMRI mice
Description: Introduction The objective of this study was to study the dose response after intravenous (iv) administration of a single dose of CPR in the range of 0.1612 mg/kg. The effect was investigated against E. coli IMI2001 in a model of femoral infection with neutropenia. Administration of meropenem at a dose of 40 mg/kg was included as a positive control group. The number of colonies in the hips was determined 5 hours after administration. The hip infection model is a well-known model for studies of the antimicrobial effect and tissue penetration, as described by S. Gudmundsson & N. Erlensdottir: Handbook of Animal Models of Infection (1999), ed. by O. Zak & M. A. Sande, Academic Press, San Diego, US, and some other publications. See the review by D. Andes & C. Craig: Animal model pharmacokinetics and pharmacodynamics: a critical review. International Journal of Antimicrobial Agents, 19 (4): 261268.
Materials and methods. 40 female outbred mice NMRI, 2530 grams (Kiev, Ukraine). Escherichia coli IMI2001 from IMINAMN, Kharkov, Ukraine. Clinical isolate from a human wound from […] with multidrug resistance (to ampicillin, ceftazidime, aztreonam, gentamicin, ciprofloxacin).
PPC in Ringer's acetate, pH 6, 1.2 mg/ml, 6.0 ml. The solution was stored at 4° C. until use. The analyzes of the compositions used for administration were performed at the end of the phase of the study conducted on live animals, and the following results were obtained in these analyzes.
as §1
Infection of mice. […]
The number of colonies was determined in the hips at 0 and 5 h. […]
Results. The number of colonies was determined at the beginning of administration and 5 hours after administration. […] CFU/ml in the infectious material was determined to be 7.35 log 10, which corresponds to […]. […]

[3] = test system: Escherichia coli IMI2001; experiment: Neutropenic peritonitis/sepsis model in mice, dose response (Example 5); assay type: in vivo, NMRI mice
Description: The objective of this study was to study the dose response relationship after intravenous (iv) administration of a single dose of SKPA (CBT) in the range of 0.1612 mg/kg. The effect was investigated against resistant E. coli IMI2001 in a neutropenic peritonitis model. Administration of meropenem at a dose of 40 mg/kg was included as a positive control group. The number of colonies in the blood and peritoneal fluid was determined 5 hours after administration. The mouse peritonitis/sepsis model is a well-known model for antimicrobial activity studies as described by N. FrimodtMoller and J. D.
30 female outbred NMRI mice, 2530 grams (Harlan Scandinavia).
Escherichia coli IMI2001 from IMINAMN, Kharkov, Ukraine. Clinical isolate from a human wound from 2003 with multidrug resistance (to ampicillin, ceftazidime, aztreonam, gentamicin, ciprofloxacin).
ASCA in Ringer's acetate, pH 6, 1.2 mg/ml, 6.0 ml. The solution was stored at 4° C. until use. The analyzes of the compositions used for administration were performed at the end of the phase of the study conducted on live animals, and the following results were obtained in these analyzes.
as §1
Infection of mice. Fresh E. coli IMI2001 colonies obtained overnight in an agar plate and 5% horse blood were suspended and diluted in sterile saline to approximately 2×10^6 CFU/ml. One hour before the start of administration (time point 1 h), mice were intraperitoneally infected with 0.5 ml of a suspension of E. coli in the lateral lower quadrant of the abdomen. Approximately 0.51 hours after the administration, 45 μl of neurofen (20 mg ibuprofen per ml, corresponding to 30 mg/kg) was orally administered to the mice as a painkiller.
The introduction of drugs to mice. Mice were given a single intravenous administration of CBT, meropenem, or excipient into the lateral tail vein for approximately 30 seconds in a volume of 10 ml/kg at time 0 h (see Table 1). The dose determination was based on an average body weight of 30 g. Mice with a body weight of 2832 g were injected with 0.30 ml of solution. Mice weighing 2728 g were injected with 0.25 ml of the solution and mice weighing 32.136 g were injected with 0.35 ml of the solution.
T indicates time relative to administration. The numbers in the columns of the sampling represent the identification numbers of mice. Clinical scoring of mice. Mice were observed during the study and assigned them scores from 0 to 5 depending on their behavior and clinical signs.
The number of colonies was determined in blood and peritoneal fluid for 0 and 5 hours. Mice were anesthetized with CO2+O2 and blood was taken from an axillary incision into Eppendorf tubes coated with ethylene diamine tetraacetic acid (EDTA). Mice were sacrificed immediately after blood sampling, and a total of 2 ml of sterile physiological saline was administered intraperitoneally and a gentle massage of the abdomen was performed until it was opened and the fluid samples were pipetted. Then, each sample was diluted 10 times in physiological saline and drops of 20 μl were applied to blue agar plates. All agar plates were incubated for 1822 hours at 35° C. in air.
Results. The number of colonies was determined at the beginning of administration and 5 hours after administration. Before the calculations, a log 10 transformation of the CFU count was performed.
Dose response curves (data not shown) were calculated in GraphPad Prism using a sigmoid dose response curve (variable angle). […] The maximum effect of CBT, Emax, was determined as the difference in log CFU in the absence of response and at the maximum response. The lack of response was characterized as the number of colonies at a level determined in mice that were injected with vehicle. […]

[4] = test system: multiresistant strains of microorganisms and fungi; experiment: Antimicrobial activity in vitro, collection of multiresistant test strains (summary statements); assay type: cell-based; details: resistant fungal strains
[5] = Meropenem 40 mg/kg single iv, 2 h
[6] = Meropenem 40 mg/kg single iv, 5 h
[7] = Meropenem 40 mg/kg single iv, T = 2 h, individual mice
[8] = Meropenem 40 mg/kg single iv, T = 5 h, individual mice
[9] = Meropenem 40 mg/kg single iv, T = 5 h, p < 0.01 vs filler
[10] = Meropenem 40 mg/kg single iv, individual mice, score 0-5

`C[C@@H](O)[C@H]1C(=O)N2C(C(=O)O)=C(S[C@@H]3CN[C@H](C(=O)N(C)C)C3)[C@H](C)[C@H]12` [Meropenem, meropenem] was tested, and the “Difference in CFU level compared with filler, blood” value [1, 5] was “blood −0.82 log CFU/ml”, the “Difference in CFU level compared with filler, peritoneum” value [1, 5] was 2 h: peritoneum −1.51 log CFU/ml and the “Difference in CFU level compared with filler, blood” value [1, 6] was “blood −1.64 log CFU/ml”. The “Difference in CFU level compared with filler, peritoneum” value [1, 6] was 5 h: peritoneum −1.51 log CFU/ml, the “log10 CFU Blood (group average)” value ([1]; Meropenem 40 mg/kg single iv, T = 2 h) was 3.76 log10 CFU and the “log10 CFU Blood” value [1, 7] was 3.60 log10 CFU and 3.57 log10 CFU and 4.11 log10 CFU. The “log10 CFU PF” value [1, 7] was 4.12 log10 CFU and 3.40 log10 CFU and 4.24 log10 CFU, the “log10 CFU PF (group average)” value ([1]; Meropenem 40 mg/kg single iv, T = 2 h, p < 0.01 vs filler) was 3.92 ** log10 CFU and the “log10 CFU Blood” value [1, 8] was 3.20 log10 CFU and 2.85 log10 CFU and 3.26 log10 CFU. For the same compound, the “log10 CFU PF” value [1, 8] was 4.38 log10 CFU and 4.00 log10 CFU and 4.26 log10 CFU, the “log10 CFU Blood (group average)” value [1, 9] was 3.10** log10 CFU and the “log10 CFU PF (group average)” value [1, 9] was 4.21 ** log10 CFU. The “Score T = 2 h” value [1, 10] was 1, the “Score T = 5 h” value [1, 10] was 0 and the “significant decrease of CFU compared with filler group” value ([1]; meropenem 40 mg/kg, 2 hours after administration) was “only in the peritoneal fluid”. The “CFU compared with filler group, blood and peritoneal fluid” value ([1]; meropenem 40 mg/kg, after 5 hours, p<0.01) was “significant decrease”, the “log10 CFU, hip, The average” value ([2]; Meropenem 40 mg/kg single iv, T = 5 h) was 4.25 log10 CFU and the “log10 CFU, hip” value ([2]; Meropenem 40 mg/kg single iv, T = 5 h, individual mice, smallest value of group excluded from average) was 4.99 log10 CFU and 3.94 log10 CFU. The “CFU compared with vehicle, hip” value ([2]; meropenem 40 mg/kg iv, 5 h) was “definite but insignificant decrease”, the “log10 CFU Blood” value [3, 8] was 2.48 log10 CFU and 1.70 log10 CFU and 2.95 log10 CFU and the “log10 CFU PF” value [3, 8] was 3.92 log10 CFU and 1.70 log10 CFU and 2.30 log10 CFU. For the same compound, the “log10 CFU Average in PF” value [3, 9] was 2.64 log10 CFU, the “log10 CFU Blood average” value ([3]; Meropenem 40 mg/kg single iv, T = 5 h, p < 0.05 vs filler) was 2.38 log10 CFU and the “Clinical Score T = 5 h” value [3, 10] was 1 (2×) and 0. The “CFU compared with excipient, blood (p<0.05) and peritoneal fluid (p<0.01)” value ([3]; meropenem 40 mg/kg iv, 5 h) was “significant decrease”.
With `C[C@@H]1[C@H](O)[C@@H](C)/C=C/C=C/CC/C=C/C=C/C=C/C=C/C(O[C@H]2O[C@H](C)[C@@H](O)[C@H](N)[C@@H]2O)CC2O[C@](O)(CC(O)C(O)CCC(O)CC(O)CC(O)CC(=O)O[C@H]1C)CC(O)C2C(=O)O` (stereo partly drawn) [nystatin] the antifungal activity [4] was “did not exert antifungal activity”.
In the case of `C[C@@H]1[C@H](O)[C@@H](C)/C=C/C=C/C=C/C=C/C=C/C=C/C=C/[C@H](O[C@@H]2O[C@H](C)[C@@H](O)[C@H](N)[C@@H]2O)C[C@@H]2O[C@](O)(C[C@@H](O)C[C@@H](O)[C@H](O)CC[C@@H](O)C[C@@H](O)CC(=O)O[C@H]1C)C[C@H](O)[C@H]2C(=O)O` [amphotericin], the antifungal activity [4] is reported as “did not exert antifungal activity”.
